Columns and labels:
OCI-AML3 (NPM1 C+) = test: Viability assay (WST-1) in OCI-AML3 cell line; type: cell-based; conditions: Homo sapiens, OCI-AML-3, viability percentage relative to vehicle, 24 h
Procedure: (§1) Two different acute myeloid leukemia cell lines, OCI-AML3 (NPM1 C+) and MOLM13 (NPM1 C−) were obtained from the DSMZ cell repository (Braunschweig, Germany). Cell lines were expanded and cryogenically frozen upon acquisition to establish stocks in liquid nitrogen until use. Cultured cells were maintained at 37° C. in a humidified incubator in an atmosphere of 5% CO2 and passaged every 2-3 days. RPMI media (Gibco/Life Technologies; Grand Island, NY) supplemented with 10% fetal bovine serum (FBS) (Hyclone) and 1% penicillin/streptomycin was used.
(§2) The sensitivity of the compounds on OCI-AML3 (NPM1 C+) and MOLM13 (NPM1 C−) cell viability was assessed as an in-vitro acute myeloid leukemia (AML) model. Briefly, cells were seeded at a density of 2×10^4 cells/100 μL/well in 96-well plates. Cell lines were treated for 24 h with the test compound diluted in DMSO at the concentration of 5 μM or vehicle (DMSO). Then, 10 μL of WST-1 solution ((2-(4-iodophenyl)-3-(4-nitrophenyl)-5-(2,4-disulfophenyl)-2H-tetrazolium monosodium salt, Merck) were added and the cells were incubated for 4 h at 37° C. The absorbance was measured at 450 nm using an Asys UVM 340 microplate reader (Biochrom Ltd., Cambridge, UK). The background absorbance of blank wells containing only medium was subtracted from each test well. The data were reported as viability percentage relative to vehicle, obtained from two or three independent experiments performed in triplicate (Table 1).

MOLM13 (NPM1 C−) = test: Viability assay (WST-1) in MOLM13 cell line; type: cell-based; conditions: Homo sapiens, MOLM-13, viability percentage relative to vehicle, 24 h
Procedure: as §1, §2

SMILES | viability at 5 µM (OCI-AML3 (NPM1 C+)) | viability at 5 µM (MOLM13 (NPM1 C−))
N[C@@H]1[C@@H](c2ccc(C(F)(F)F)cc2)Cc2[nH]c3ccccc3c2[C@H]1CCNCC1CC1 [Ie, (2R,3R,4R)-4-{2-[(Cyclopropylmethyl)amino]ethyl}-2-[4-(trifluoromethyl)phenyl]-2,3,4,9-tetrahydro-1H-carbazol-3-amine] | 14 ± 5% | 13 ± 3%
N[C@@H]1[C@@H](c2ccc(OC(F)(F)F)cc2)Cc2[nH]c3ccccc3c2[C@H]1CCNCC1CC1 [If, (2R,3R,4R)-4-{2-[(Cyclopropylmethyl)amino]ethyl}-2-[4-(trifluoromethoxy)phenyl]-2,3,4,9-tetrahydro-1H-carbazol-3-amine] | 11 ± 4% | 12 ± 3%
N[C@@H]1[C@@H](c2cccc(Cl)c2)Cc2[nH]c3ccccc3c2[C@H]1CCNCC1CC1 [Ih, (2R,3R,4R)-2-(3-Chlorophenyl)-4-{2-[(cyclopropylmethyl)amino]ethyl}-2,3,4,9-tetrahydro-1H-carbazol-3-amine] | 25 ± 7% | 28 ± 10%
N[C@@H]1[C@@H](c2ccc(Cl)cc2)Cc2[nH]c3ccccc3c2[C@H]1CCNCC1CC1 [Ii, (2R,3R,4R)-2-(4-Chlorophenyl)-4-{2-[(cyclopropylmethyl)amino]ethyl}-2,3,4,9-tetrahydro-1H-carbazol-3-amine] | 13 ± 4% | 13 ± 1%
COc1ccccc1[C@H]1Cc2[nH]c3ccccc3c2[C@@H](CCNCC2CC2)[C@@H]1N [Ik, (2R,3S,4R)-4-{2-[(Cyclopropylmethyl)amino]ethyl}-2-(2-methoxyphenyl)-2,3,4,9-tetrahydro-1H-carbazol-3-amine] | 23 ± 3% | 30 ± 2%
Cc1cccc([C@H]2Cc3[nH]c4ccccc4c3[C@@H](CCNCC3CC3)[C@@H]2N)c1 [Il, (2R,3R,4R)-4-{2-[(Cyclopropylmethyl)amino]ethyl}-2-(3-methylphenyl)-2,3,4,9-tetrahydro-1H-carbazol-3-amine] | 19 ± 7% | 32 ± 4%
Cc1ccccc1[C@H]1Cc2[nH]c3ccccc3c2[C@@H](CCNCC2CC2)[C@@H]1N [Im, (2R,3R,4R)-4-{2-[(Cyclopropylmethyl)amino]ethyl}-2-(2-methylphenyl)-2,3,4,9-tetrahydro-1H-carbazol-3-amine] | 36 ± 8% | 61 ± 7%
N[C@@H]1[C@@H](c2ccccc2Cl)Cc2[nH]c3ccccc3c2[C@H]1CCNCC1CC1 [In, (2R,3S,4R)-2-(2-Chlorophenyl)-4-{2-[(cyclopropylmethyl)amino]ethyl}-2,3,4,9-tetrahydro-1H-carbazol-3-amine] | 29 ± 1% | 28 ± 4%
N[C@@H]1[C@@H](c2ccc(F)cc2)Cc2[nH]c3ccccc3c2[C@H]1CCNCC1CC1 [Io, (2R,3R,4R)-4-{2-[(Cyclopropylmethyl)amino]ethyl}-2-(4-fluorophenyl)-2,3,4,9-tetrahydro-1H-carbazol-3-amine] | 16 ± 1% | 13 ± 5%
N[C@H]1[C@H](c2ccc(F)cc2)Cc2[nH]c3ccccc3c2[C@@H]1CCNCC1CC1 [Ip, (2S,3S,4S)-4-{2-[(Cyclopropylmethyl)amino]ethyl}-2-(4-fluorophenyl)-2,3,4,9-tetrahydro-1H-carbazol-3-amine] | 7 ± 3% | 7 ± 2%
N[C@@H]1[C@@H](c2cccc(F)c2)Cc2[nH]c3ccccc3c2[C@H]1CCNCC1CC1 [Iq, (2R,3R,4R)-4-{2-[(Cyclopropylmethyl)amino]ethyl}-2-(3-fluorophenyl)-2,3,4,9-tetrahydro-1H-carbazol-3-amine] | 18 ± 6% | 34 ± 4%
CN[C@@H]1[C@@H](c2ccc(OC)cc2)Cc2[nH]c3ccccc3c2[C@H]1CCNCC1CC1 [Ir, (2R,3R,4R)-4-{2-[(Cyclopropylmethyl)amino]ethyl}-2-(4-methoxyphenyl)-N-methyl-2,3,4,9-tetrahydro-1H-carbazol-3-amine] | 11 ± 3% | 15%
CN[C@H]1[C@H](c2ccc(OC)cc2)Cc2[nH]c3ccccc3c2[C@@H]1CCNCC1CC1 [Is, (2S,3S,4S)-4-{2-[(Cyclopropylmethyl)amino]ethyl}-2-(4-methoxyphenyl)-N-methyl-2,3,4,9-tetrahydro-1H-carbazol-3-amine] | 1% | 6 ± 1%
Cc1ccc([C@H]2Cc3[nH]c4ccccc4c3[C@@H](CCNCC3CC(F)(F)C3)[C@@H]2N)cc1 [Iu, (2R,3R,4R)-4-(2-{[(3,3-Difluorocyclobutyl)methyl]amino}ethyl)-2-(4-methylphenyl)-2,3,4,9-tetrahydro-1H-carbazol-3-amine] | 4 ± 3% | 6 ± 1%
CNCC[C@@H]1c2c([nH]c3ccccc23)C[C@H](c2ccc(OC)cc2)[C@H]1N [Iw, (2R,3R,4R)-2-(4-Methoxyphenyl)-4-[2-(methylamino)ethyl]-2,3,4,9-tetrahydro-1H-carbazol-3-amine] | 27 ± 2% | 40 ± 15%
Cc1ccc([C@H]2Cc3[nH]c4ccccc4c3[C@@H](CCNCC(C)C)[C@@H]2N)cc1 [Ix, (2R,3R,4R)-2-(4-Methylphenyl)-4-{2-[(2-methylpropyl)amino]ethyl}-2,3,4,9-tetrahydro-1H-carbazol-3-amine] | 0% | 0%
Cc1ccc([C@H]2Cc3[nH]c4ccccc4c3[C@@H](CCNC(C)C)[C@@H]2N)cc1 [Iy, (2R,3R,4R)-2-(4-Methylphenyl)-4-{2-[(propan-2-yl)amino]ethyl}-2,3,4,9-tetrahydro-1H-carbazol-3-amine] | 8% | 4 ± 4%
CCNCC[C@@H]1c2c([nH]c3ccccc23)C[C@H](c2ccc(C)cc2)[C@H]1N [Iz, (2R,3R,4R)-4-[2-(Ethylamino)ethyl]-2-(4-methylphenyl)-2,3,4,9-tetrahydro-1H-carbazol-3-amine] | 8 ± 4% | 8 ± 3%
